US20220218664A1, “DRUG AND METHOD FOR TREATING OR PREVENTING COMPLICATIONS FROM DIABETES, USING SAID DRUG” (TMS Co., Ltd., priority 2019, published 2022)

Experiments:
[1] = Body weight in diabetic nephropathy model mice; assay type: in vivo, Male db/db mice; details: 30 mg/kg i.p. once every two days for 10 weeks; 16 weeks old
[2] = test system: diabetic nephropathy model mice; assay: Blood glucose level in diabetic nephropathy model mice; assay type: in vivo, Male db/db mice; details: 30 mg/kg i.p. once every two days for 10 weeks; 16 weeks old
[3] = test system: diabetic nephropathy model mice; assay: Urine volume (24 h, metabolic cage); assay type: in vivo, Male db/db mice; details: 16 weeks old, 24 h urine
[4] = test system: diabetic nephropathy model mice; assay: Tubular regeneration score (HE-stained kidney); assay type: in vivo, Male db/db mice; details: 16 weeks old, score 0 to 4
[5] = test system: diabetic nephropathy model mice; assay: Urinary albumin; details: 30 mg/kg i.p. once every two days for 10 weeks; 16 weeks old
[6] = test system: diabetic nephropathy model mice; assay: Serum creatinine; details: 16 weeks old
[7] = test system: streptozotocin-induced diabetic mice; assay: Blood glucose level (BS) in streptozotocin-induced diabetic mice; assay type: in vivo, C57BL/6J male mice; details: 30 mg/kg i.p. once a day
Description: 9-week-old C57BL/6J male mice were purchased and familiarized with an animal facility for 1 week. 200 mg/kg of streptozotocin (streptozotocin; STZ) was administered […] into the peritoneal cavity of 10-week-old mice to prepare streptozotocin-induced diabetic mice (hereinafter also referred to as “STZ administration week 0”). One week after the administration of streptozotocin, blood was collected from the tail vein of the mice, and the blood glucose level (BS) was measured using an automatic blood glucose measuring device (product name: Medisafe (trademark) Mini GR-102, made by Terumo (Co)). Mice having a blood glucose level of 400 mg/dL or more were determined to be diabetic mice.
The SMTP-44D groups, the edaravone group, and the pregabalin group were administered SMTP-44D (0.3 mg/kg, 3 mg/kg, or 30 mg/kg doses, respectively), edaravone (10 mg/kg dose), or pregabalin (10 mg/kg dose) into the peritoneal cavity once a day for 3 consecutive weeks from the day following the first week to the fourth week after STZ administration.
For the above-mentioned STZ group, SMTP-44D groups, edaravone group, pregabalin group, and control group mice, the following measurements were conducted every week from the 0th week, which began on the day when streptozotocin (STZ) was administered, to the 4th week (that is, a total of five times). As algesia tests, the following von Frey test and hot plate test were conducted, and hind plantar blood flow, body weight (BW), and blood glucose level (BS) were measured using the above-mentioned automatic blood glucose measure device. Note, for example, the 0th week represents the 0th day. That is, the measurements were conducted on the 0th, 7th, 14th, 21st, and 28th days.

[8] = 30 mg/kg i.p. once every two days for 10 weeks
[9] = 300 mg/kg orally once every two days for 10 weeks

For CC(C)=CCC/C(C)=C/CCC1(C)Oc2c(c(O)cc3c2CN(c2cc(C(=O)O)ccc2O)C3=O)CC1O (centres unmarked) [SMTP-27], the “Body weight compared to the DN group” value [1] was “No significant changes”, the “Blood glucose levels compared to the DN group” value [2] was “No significant changes” and the Urine volume [3, 8] was 1659.2 ± 270.2 µL. It also gave a Tubular regeneration score [4, 8] of 0.0±0.0 pts, a Urinary albumin [5] of 0.3 ± 0.1 mg/h/kg and a Serum creatinine [6, 8] of 0.4 ± 0.1 mg/dL.
Compound CN(C)C(=N)N=C(N)N [metformin] has a Urine volume [3, 9] of 1678.3 ± 250.4 µL, a Tubular regeneration score [4, 9] of 0.5±0.2 pts and a Serum creatinine [6, 9] of 0.6 ± 0.0 mg/dL.
In the case of CC(C)=CCC/C(C)=C/CCC1(C)Oc2c(c(O)cc3c2CN([C@H](Cc2ccccc2)C(=O)O)C3=O)CC1O (some centres unmarked) [SMTP-4D], the “BS (blood glucose level)” value ([7]; 0th week (before dosing)) was 203.5 ± 5.5 mg/dL, the “BS (blood glucose level)” value ([7]; 1st week (before dosing)) was 535.5 ± 28.7 mg/dL and the “BS (blood glucose level)” value ([7]; 2nd week) was 597.3 ± 44.8 mg/dL. For the same compound, the “BS (blood glucose level)” value ([7]; 3rd week) was 638.7 ± 34.2 mg/dL and the “BS (blood glucose level)” value ([7]; 4th week) was 580.3 ± 42.9 mg/dL.
